Earlier results in patent US20110244050A1, “PULSED-RELEASE SILDENAFIL COMPOSITION AND METHOD FOR PREPARING SAID COMPOSITION” (SIEGFRIED RHEIN S.A. DE C.V., priority 2008, published 2011).

Experiments:
[1] = in vivo

Compound: CCCc1nn(C)c2c(=O)[nH]c(-c3cc(S(=O)(=O)N4CCN(C)CC4)ccc3OCC)nc12 [sildenafil]
- plasmatic elimination half-life [1]: about 4 hours
- solubility in acidic media (acidic media, like in the stomach): adequate
- solubility in alkaline media (alkaline media, like that found in the intestine): decreases markedly
